Measured values as given in paper PMC2099433, “The binding site for neohesperidin dihydrochalcone at the human sweet taste receptor” (BMC Structural Biology, 2007).

Experiments:
[1] = biological target: T1, rodent sweet taste receptor (Rattus norvegicus, UniProt Q923K1); test: Calcium response, rodent sweet taste receptor; type: cell-based
T1 construct: expressed in transfected cells; host or cells: HEK293T cells stably expressing G16Gust44
Excerpt: (§1) In order to elucidate the putative binding site for NHDC, we cotransfected mixtures of plasmid DNAs for the rat and human TAS1R2 and TAS1R3 receptor subunits in HEK293T cells stably expressing the chimeric G-protein G16Gust44 and measured cellular calcium responses by fluorometry following bath application of various sweet tasting compounds.
(§2) Figure 1 Chemical structure and calcium responses elicited by neohesperidin dihydrochalcone. (A) Structure of neohesperidin dihydrochalcone. Numbers denote carbon atom positions. […]
(§3) The cDNAs for TAS1Rs tagged at the C-terminus with the herpes simplex virus glycoprotein D (HSV) were transiently transfected into HEK293T cells stably expressing the chimeric G-protein subunit G16Gust44 [44] using Lipofectamine 2000 (Invitrogen, Carlsbad, CA) according to the manufacturer's protocol. […] We monitored calcium mobilization following receptor stimulation with sweet tastants by an automated fluorometric imaging plate reader (FLIPR, Molecular Devices, Sunnyvale, CA). […] The obtained calcium signals were corrected for the response of mock transfected cells and normalized to the fluorescence of cells prior to the application of the stimulus using ΔF/F = (F-F0)/F0. Concentration-response curves and EC50 and IC50 values were calculated in SigmaPlot by nonlinear regression using the function f = ((a-d)/(1+(x/EC50)^nH)+d) and f = (a-b)/[1+(x/IC50)^nH]+b, respectively.

[2] = biological target: T2, human TAS1R3 and rat Tas1r2 (Homo sapiens, UniProt Q7RTX0); test: Calcium response, interspecies subunit combination; type: cell-based; conditions: 1 mM NHDC
T2 construct: expressed in transfected cells; host or cells: HEK293T cells stably expressing G16Gust44
T2 sequence (Q7RTX0 21-852): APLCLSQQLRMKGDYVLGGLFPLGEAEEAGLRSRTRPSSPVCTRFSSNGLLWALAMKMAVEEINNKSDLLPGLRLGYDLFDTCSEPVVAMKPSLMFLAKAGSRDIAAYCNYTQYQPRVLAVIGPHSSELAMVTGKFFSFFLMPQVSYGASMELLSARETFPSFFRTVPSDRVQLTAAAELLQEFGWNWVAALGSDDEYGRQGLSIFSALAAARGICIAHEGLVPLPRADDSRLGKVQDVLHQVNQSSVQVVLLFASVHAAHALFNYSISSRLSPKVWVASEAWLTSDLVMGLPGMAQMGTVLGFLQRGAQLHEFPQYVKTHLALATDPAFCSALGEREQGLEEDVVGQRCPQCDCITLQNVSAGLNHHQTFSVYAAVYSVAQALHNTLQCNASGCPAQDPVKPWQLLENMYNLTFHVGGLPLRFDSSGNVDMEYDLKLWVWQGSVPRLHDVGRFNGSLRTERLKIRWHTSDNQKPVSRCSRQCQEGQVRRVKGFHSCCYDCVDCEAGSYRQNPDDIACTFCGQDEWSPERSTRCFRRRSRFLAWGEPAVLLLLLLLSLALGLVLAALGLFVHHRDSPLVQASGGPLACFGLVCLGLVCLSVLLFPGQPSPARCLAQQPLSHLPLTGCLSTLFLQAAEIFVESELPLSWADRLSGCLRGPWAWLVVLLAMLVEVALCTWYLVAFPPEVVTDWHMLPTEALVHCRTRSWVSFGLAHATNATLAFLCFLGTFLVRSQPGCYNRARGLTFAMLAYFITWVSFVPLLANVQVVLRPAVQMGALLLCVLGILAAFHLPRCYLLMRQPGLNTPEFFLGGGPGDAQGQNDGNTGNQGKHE
T2 sequence (Q9Z0R7 20-843 partner): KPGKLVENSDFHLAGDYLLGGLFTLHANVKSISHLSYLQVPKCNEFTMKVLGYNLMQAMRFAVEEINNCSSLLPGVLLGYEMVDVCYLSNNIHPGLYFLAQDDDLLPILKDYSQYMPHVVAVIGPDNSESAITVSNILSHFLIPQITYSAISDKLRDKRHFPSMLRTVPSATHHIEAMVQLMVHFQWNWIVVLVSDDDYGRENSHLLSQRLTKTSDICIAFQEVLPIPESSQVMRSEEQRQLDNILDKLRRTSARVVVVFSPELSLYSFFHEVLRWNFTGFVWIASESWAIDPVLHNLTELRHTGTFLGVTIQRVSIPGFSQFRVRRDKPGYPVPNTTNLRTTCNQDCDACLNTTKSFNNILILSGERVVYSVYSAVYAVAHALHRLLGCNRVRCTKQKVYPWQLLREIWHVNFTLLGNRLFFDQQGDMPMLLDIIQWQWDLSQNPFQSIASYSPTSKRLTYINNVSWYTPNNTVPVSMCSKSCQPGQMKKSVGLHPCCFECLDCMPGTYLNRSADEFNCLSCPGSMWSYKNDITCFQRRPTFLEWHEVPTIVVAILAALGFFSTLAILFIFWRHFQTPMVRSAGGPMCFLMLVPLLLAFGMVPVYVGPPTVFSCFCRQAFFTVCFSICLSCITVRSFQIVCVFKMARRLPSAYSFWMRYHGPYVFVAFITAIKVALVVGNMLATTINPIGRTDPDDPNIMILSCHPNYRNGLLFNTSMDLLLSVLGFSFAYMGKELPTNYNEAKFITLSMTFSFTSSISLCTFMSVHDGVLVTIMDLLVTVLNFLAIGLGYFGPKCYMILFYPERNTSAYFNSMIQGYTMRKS
Excerpt: as §1, §2, §3

[3] = test system: receptors that contain the entire rat Tas1r3 or its heptahelical domain; test: Calcium response, receptors and chimeras with rat Tas1r3 heptahelical domain; type: cell-based, human; conditions: 1 mM NHDC
Excerpt: as §1, with “compounds. […].” for “compounds.”
Figure 1 Chemical structure and calcium responses elicited by neohesperidin dihydrochalcone. (A) Structure of neohesperidin dihydrochalcone. Numbers denote carbon atom positions. (B) Representative calcium traces elicited upon stimulation with different concentrations of neohesperidin dihydrochalcone (NHDC) in HEK293T-G16Gust44 cells cotransfected with DNA for hTAS1R2/hTAS1R3. […]
as §3, with “Concentration-response curves and EC50 and IC50 values were calculated in SigmaPlot by nonlinear regression using the function f = ((a-d)/(1+(x/EC50)^nH)+d) and f = (a-b)/[1+(x/IC50)^nH]+b, respectively.” left out

T1 sequence (Q923K1 21-858): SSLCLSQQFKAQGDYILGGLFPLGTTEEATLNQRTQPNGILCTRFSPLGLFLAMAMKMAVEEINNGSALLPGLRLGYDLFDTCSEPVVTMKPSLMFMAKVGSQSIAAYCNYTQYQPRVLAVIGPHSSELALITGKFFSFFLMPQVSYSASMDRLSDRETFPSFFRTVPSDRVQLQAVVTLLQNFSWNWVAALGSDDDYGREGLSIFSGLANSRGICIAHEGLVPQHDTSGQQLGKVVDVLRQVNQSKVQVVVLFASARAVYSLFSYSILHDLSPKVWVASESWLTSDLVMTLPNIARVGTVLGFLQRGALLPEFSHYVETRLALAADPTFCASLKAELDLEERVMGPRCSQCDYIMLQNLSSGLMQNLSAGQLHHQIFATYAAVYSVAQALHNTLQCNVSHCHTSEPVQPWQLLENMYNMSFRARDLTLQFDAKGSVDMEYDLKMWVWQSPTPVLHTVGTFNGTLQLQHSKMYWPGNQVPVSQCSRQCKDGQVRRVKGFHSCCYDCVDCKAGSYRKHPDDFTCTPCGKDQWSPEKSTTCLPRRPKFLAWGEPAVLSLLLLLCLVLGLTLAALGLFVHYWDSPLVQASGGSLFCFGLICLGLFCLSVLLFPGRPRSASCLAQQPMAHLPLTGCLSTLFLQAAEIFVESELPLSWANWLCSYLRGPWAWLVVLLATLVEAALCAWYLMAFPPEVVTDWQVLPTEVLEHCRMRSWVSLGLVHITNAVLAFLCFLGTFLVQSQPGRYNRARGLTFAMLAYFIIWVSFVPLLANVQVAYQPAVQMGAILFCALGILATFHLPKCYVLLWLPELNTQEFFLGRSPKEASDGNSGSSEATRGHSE
T1 sequence (Q9Z0R7 20-843 partner): as the sequence (Q9Z0R7 20-843 partner) above

**Q.** `COc1ccc(CCC(=O)c2c(O)cc(O[C@@H]3O[C@H](CO)[C@@H](O)[C@H](O)[C@H]3O[C@@H]3O[C@@H](C)[C@H](O)[C@@H](O)[C@H]3O)cc2O)cc1O` [NHDC, neohesperidin dihydrochalcone] was tested. Which receptor activation [1] did it give?
**A.** not the rodent sweet taste receptor

**Q.** What about the calcium response [2] of the same compound?
**A.** elicited calcium responses

**Q.** And the calcium response [3]?
**A.** did not respond to NHDC
